Test [1] deals with Chitotriosidase-1 (Homo sapiens, UniProt Q13231). The test is described as follows: Inhibition Assay. Particulars: pH 5.5.
Test [2] has as its target Endochitinase B1 (Aspergillus fumigatus, UniProt Q873X9). The test is described as follows: Inhibition Assay. Particulars: pH 5.5.

Numbered stars: 1 amine (or outer) side, 2 acyl side, 3 side chain; on linkers, the order of the positions; unused ones are H or OH. Square brackets hold non-standard residues; d marks the D form. Side chains are listed from the residue outwards. Peptide text beside a SMILES is read from it. NMeF = CN[C@@H](Cc1ccccc1)C(=O)O; CO = O=C([*:1])[*:2]

Chitotriosidase-1, sequence (Q13231 whole entry): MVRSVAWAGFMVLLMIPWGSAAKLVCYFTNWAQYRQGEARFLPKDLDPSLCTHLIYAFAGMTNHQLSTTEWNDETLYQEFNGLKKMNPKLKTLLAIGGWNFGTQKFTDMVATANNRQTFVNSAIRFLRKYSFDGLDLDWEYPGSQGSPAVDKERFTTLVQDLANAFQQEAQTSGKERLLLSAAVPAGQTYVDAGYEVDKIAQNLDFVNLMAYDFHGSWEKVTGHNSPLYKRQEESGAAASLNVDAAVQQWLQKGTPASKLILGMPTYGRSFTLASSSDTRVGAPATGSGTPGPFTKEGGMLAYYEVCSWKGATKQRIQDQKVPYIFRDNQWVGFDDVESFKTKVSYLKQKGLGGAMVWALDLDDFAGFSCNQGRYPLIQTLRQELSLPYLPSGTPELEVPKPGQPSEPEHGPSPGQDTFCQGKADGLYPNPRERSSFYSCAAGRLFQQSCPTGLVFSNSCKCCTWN

What is called IC50 is the concentration needed to halve the response being measured. Regarding `CNC(=O)NC(=N)NCCC[C@H](NC(C)=O)C(=O)N(C)[C@@H](Cc1ccccc1)C(=O)O`, in test [1], the half-inhibitory concentration (IC50) turned out to be 190 µM.
For `CNC(=O)NC(=N)NCCC[C@@H]1NC(=O)[C@@H](C)NC(=O)C[C@@H](C(=O)O)NC(=O)C[C@@H](C(=O)O)NC(=O)[C@H](Cc2ccccc2)N(C)C1=O` [(2R,5S,8S,11S,15S)-8-benzyl-2,7-dimethyl-5-[3-({[(methylcarbamoyl)amino]methanimidoyl}amino)propyl]-3,6,9,13,17-pentaoxo-1,4,7,10,14-pentaazacycloheptadecane-11,15-dicarboxylic acid], in test [2], the IC50 was 0.027 µM.
`[H]/N=C(\NC)NC(=O)NC` [Argifin-Derived Fragments, 1]: the values for the IC50 in test [1] and in test [2] were 5800 µM and 500 µM, respectively.
`CNC(=O)NC(N)=NCCC[C@H](NC(C)=O)C(=O)NC` [Monopeptide] registered a half-maximal inhibitory concentration (IC50) in test [1] of 1000 µM. This lies in the millimolar range.
The same measure, in the same setting: to `CNC(=O)NC(N)=NCCC[C@H](NC(=O)[C@@H](C)NC(C)=O)C(=O)N(C)[C@@H](Cc1ccccc1)C(=O)N[C@@H](CC(=O)O)C(=O)O` [Tetrapeptide] belongs 28 µM.
Take `CNC(=O)NC(N)=NCCC[C@H](NC(C)=O)C(=O)N(C)[C@@H](Cc1ccccc1)C(=O)N[C@@H](CC(=O)O)C(=O)O` [Tripeptide] (Ac-Arg([CO-NHMe])-[NMeF]-Asp-OH): the half-maximal inhibitory concentration (IC50) is 68 µM in test [1] and 5.1 µM in test [2].

Source of the values: BindingDB's records for doi:10.1016/j.chembiol.2008.02.015 (University of Dundee, 2008).
